Values quoted from earlier work in patent publication EP2610673B1, “Method for manufacturing lithographic printing plates” (FUJIFILM Corporation, priority 2011, dated 2013).

Row | solubility in 20°C water [g/100 mL] | Structure (SMILES)
1 | 1.7 | CCC(=O)CC [diethyl ketone]
2 | 2.7 | OCCOc1ccccc1 [ethylene glycol monophenyl ether]
3 | 6.5 | CCCCOCCOCCOC(C)=O [diethylene glycol monobutyl ether acetate]
4 | 1.6 | CCCOC(C)=O [propyl acetate]
5 | 4.4 | CCCCOCC(C)O (stereo not shown) [propylene glycol mono-n-butyl ether]
6 | 4.5 | CCCC(C)O (stereo not shown) [Example 2-pentanol, 2-pentanol]
7 | 3.5 | CC(C)(C)CO [neopentyl alcohol]
8 | 2.7 | CC(C)CCO [3-methyl-1-butanol]
9 | 5.6 | CC(C)C(C)O (stereo not shown) [3-methyl-2-butanol]
10 | 4.0 | CCCC(C)=O [Example 2-pentanone, 2-pentanone]
11 | 5.2 | CCC(O)CC [Example 3-pentanol, 3-pentanol]
12 | 2.7 | CCCCCO [Example 1-pentanol, 1-pentanol]
13 | 2.0 | CC(C)CC(C)O (stereo not shown) [4-methyl-2-pentanol]
14 | 4.0 | OCc1ccccc1 [benzyl alcohol]

Row | Structure (SMILES) | solubility in 20°C water [g/100 mL]
15 | CCC(C)CO (stereo not shown) [2-methyl-1-butanol] | 3.0
16 | CC(=O)OC(C)C [isopropyl acetate] | 4.3
